Results on 17 compounds are retold here after PubChem BioAssay AID588576 (Sanford-Burnham Center for Chemical Genomics, 2011).

What is called EC50 is the concentration that produces a half-maximal response.

Structures are written as SMILES. Calls of active or inactive are those of the source.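 How the source made its calls: active means an EC50 below a set limit for the caspase 9 and 3 cleavage signal; inactive means the rest.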 Bounds are passed on as bounds.

The target of the assay is Caspase-3 (Homo sapiens) + Caspase-9 (Homo sapiens) (UniProt P42574+P55211). As to the kind of experiment: activation of LZ-caspase-9 coupled caspase-3 activity – biochemical, fluorescence, LZ-caspase-9 mutant, selectivity assay for Apaf-1 activator project, SAR follow-up (AID 588576). Conditions: recombinant LZ-caspase-9/procaspase-3, DEVD-Rh110 fluorescence, 55 min.
Sequence of Caspase-3 (Homo sapiens) + Caspase-9 (Homo sapiens) (P42574 whole entry, looked up): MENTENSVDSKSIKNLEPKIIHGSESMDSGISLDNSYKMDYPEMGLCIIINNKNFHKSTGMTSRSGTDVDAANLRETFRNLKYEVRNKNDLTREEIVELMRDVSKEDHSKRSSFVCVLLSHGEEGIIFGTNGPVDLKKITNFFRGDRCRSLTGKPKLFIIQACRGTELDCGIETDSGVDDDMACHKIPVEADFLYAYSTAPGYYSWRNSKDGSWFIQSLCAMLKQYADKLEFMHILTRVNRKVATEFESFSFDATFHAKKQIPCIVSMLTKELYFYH
Sequence of Caspase-3 (Homo sapiens) + Caspase-9 (Homo sapiens) (P55211 whole entry, looked up): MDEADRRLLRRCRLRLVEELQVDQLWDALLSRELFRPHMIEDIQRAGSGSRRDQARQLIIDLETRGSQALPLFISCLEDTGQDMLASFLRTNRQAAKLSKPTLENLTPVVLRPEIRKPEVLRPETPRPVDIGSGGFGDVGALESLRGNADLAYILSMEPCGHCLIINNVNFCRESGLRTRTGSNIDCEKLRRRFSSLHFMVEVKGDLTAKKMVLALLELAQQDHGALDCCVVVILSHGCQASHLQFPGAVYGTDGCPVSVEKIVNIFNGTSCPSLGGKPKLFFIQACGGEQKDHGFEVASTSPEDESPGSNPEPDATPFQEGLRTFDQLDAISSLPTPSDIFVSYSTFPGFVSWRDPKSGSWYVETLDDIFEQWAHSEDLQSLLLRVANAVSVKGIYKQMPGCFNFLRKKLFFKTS
Regarding `O=C(Nc1nc2ccsc2c(=O)s1)C1CCC1`, the EC50 is > 100 µM (inactive).
With `Cc1nn(Cc2ccccc2)c(C)c1CCC(=O)O` the figure was > 100 µM (inactive); with `Cc1cc(NC(=O)C2CC(c3ccc(F)cc3)=NO2)n(-c2ccccc2)n1` (configuration not stated), > 100 µM (inactive).
With `Cc1cc(C)n(C(C)C(C)C(=O)O)n1` (configuration not stated) the figure was > 100 µM (inactive); with `Cc1c(NC(=O)C2CC(c3ccc(F)cc3)=NO2)c(=O)n(-c2ccccc2)n1C` (configuration not stated), > 100 µM (inactive); with `O=C(Nc1nc2ccsc2c(=O)s1)c1cccs1`, > 100 µM (inactive).
With `Cc1cc(C)n(CC(C)C(=O)Nc2ccc(Cl)c(Cl)c2)n1` (configuration not stated) the figure was > 100 µM (inactive).
For `O=C1CC2(CC(c3c(F)cccc3Cl)=NO2)C(=O)N1c1ccccc1` (configuration not stated), the EC50 was > 100 µM (inactive).
With `Cc1nn(CC(C)C(=O)O)c(C)c1Br` (configuration not stated) the figure was > 100 µM (inactive); with `Cc1cc(C)c(O)c(N2CC(C(=O)O)CC2=O)c1` (configuration not stated), > 100 µM (inactive); with `CC(Cc1c[nH]c2ccccc12)C(=O)O` (configuration not stated), > 100 µM (inactive).
With `O=C(Nc1nc2ccsc2c(=O)s1)c1ccco1` the figure was > 100 µM (inactive).
With `CCOc1ccccc1NC(=O)CCS(=O)(=O)c1ccc2c(c1)OCCO2` the figure was > 100 µM (inactive); with `Cc1cc(C)n(C(C)CC(=O)Nc2cccnc2)n1` (configuration not stated), > 100 µM (inactive); with `O=C(c1ccco1)N1CCN(C(=O)C2CC(c3ccc(F)cc3)=NO2)CC1` (configuration not stated), > 100 µM (inactive).
`O=C(O)C1CC(c2ccc(F)cc2)=NO1` (configuration not stated): the EC50 was > 100 µM (inactive).
With `O=C(Nc1ccc(F)cc1F)C1CC(c2ccc(F)cc2)=NO1` (configuration not stated) the figure was > 100 µM (inactive).
